Source: patent US10329542B2, “HBV RNAse H purification and enzyme inhibitors” (Saint Louis University, priority 2012, dated 2019)

How the values were obtained:
[1] = biological target: T1, HBV genotype D RNAseH (HRHPL) (Hepatitis B virus genotype D subtype ayw, UniProt P03156, INS679M); conditions: Tavis et al., 2013; read-out: IC50 against the HBV RNAseH, previously reported; cited from earlier work
T1 construct: HRHPL contains HBV genotype D (Genbank V01460) polymerase residues 684-845; made in house; host or cells: E. coli BL21 codon+
T1 sequence (P03156 680-832, added parts left off, stated change not applied): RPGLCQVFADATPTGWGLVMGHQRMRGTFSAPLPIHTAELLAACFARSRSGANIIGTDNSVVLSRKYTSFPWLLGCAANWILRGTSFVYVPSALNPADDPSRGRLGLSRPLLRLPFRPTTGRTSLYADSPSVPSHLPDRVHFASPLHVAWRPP

[2] = test system: HBV genotype A; test: Plus-polarity preferential real-time PCR of HBV DNA, Huh7 cells; format: cell-based, Hepatitis B virus
Description: Plus-polarity preferential quantitative TaqMan PCR for the HBV DNA was conducted employing forward primer […] (SEQ ID NO: 13), reverse primer […] (SEQ ID NO:14), and probe 5′-6Fam-[…]-Zen-[…]-IabkFQ-3′ (5′-6Fam-SEQ ID NO:15-Zen-SEQ ID NO: 16-IabkFQ-3′) (Integrated DNA Technologies). PCR was conducted on purified HBV capsid-derived nucleic acids for 40 cycles of 95° C. for 15 sec. and 65° C. for 1 min. employing the TaqMan universal PCR master mix (Applied Biosystems). Results were standardized against serial dilutions of cloned HBV DNA. The EC50 was estimated by linear regression of the real-time PCR data.
The HBV plus-polarity DNA strand was measured to quantify the effects of βTJ on HBV replication because plus-polarity DNA cannot be made without RNAseH activity. Real-time PCR primers flanking the gap in the HBV minus-polarity DNA were designed that preferentially measure plus-polarity DNA because amplification across the gap in the minus-polarity DNA is inefficient. […] Above 10 μM, βTJ suppressed HBV plus-polarity DNA levels to below the assay background of approximately 14% that was determined with the D702A RNAseH-deficient genome.

[3] = test system: HBV genotype A; conditions: 10 μM; Tavis et al., 2013; cited from earlier work
[4] = test system: Huh7 cells; test: MTS cytotoxicity assay in Huh7 cells; format: cell-based, human
Description: (§1) Toxicity of βTJ in Huh7 cells was determined with 3-(4,5-dimethylthiazol-2-yl)-5-β-carboxymethoxyphenyl)-2-(4-sulfophenyl)-2H-tetrazolium (MTS) assays that measures mitochondrial dysfunction employing the Cell Titre 96 aqueous nonradioactive cell proliferation assay (Promega), and with the CytoTox-Glo assay (Promega) that reflects cellular integrity. Huh7 and HepG2 cells (1×10^4) were plated in 96-well tissue culture plates, medium containing βTJ at the indicated concentrations was added the next day, the medium was replaced with fresh medium containing βTJ after two days, and after four days the MTS or CytoTox-Glo assays were conducted according to the manufacturer's instructions.

[5] = test system: Huh7 cells; test: CytoTox-Glo membrane integrity assay in Huh7 cells; format: cell-based, human; conditions: four days
Description: as §1

[6] = biological target: HIV-1 RNAseH (Human immunodeficiency virus type 1 group M subtype B, UniProt P04585); conditions: read-out: IC50 against the HIV RNAseH; cited from earlier work
[7] = test system: HIV; conditions: cited from earlier work
[8] = test system: HepG2 cells; test: MTS cytotoxicity assay in HepG2 cells; format: cell-based, human; conditions: four days
Description: as §1

[9] = test system: CEM-SS cells; conditions: cited from earlier work
[10] = test system: HBV; test: Quantitative PCR screen of HBV plus-polarity DNA accumulation; format: cell-based, Hepatitis B virus; conditions: 60, 20, or 6.7 μM; DNA isolated day 3
Description: This assay was employed to screen 7 compounds for their ability to suppress HBV replication (FIG. 17). […] Fresh medium containing compound was provided on days 1 and 2, and capsid-associated HBV DNAs were isolated on day 3. HBV plus-strand DNAs were measured using the cross-gap TaqMan PCR assay.
Plus-polarity preferential quantitative TaqMan PCR for the HBV DNA was conducted employing forward primer […] […] PCR was conducted on purified HBV capsid-derived nucleic acids for 40 cycles of 95° C. for 15 sec. and 65° C. for 1 min. employing the TaqMan universal PCR master mix (Applied Biosystems). Results were standardized against serial dilutions of cloned HBV DNA. The EC50 was estimated by linear regression of the real-time PCR data.

[11] = biological target: HCV RNA-directed RNA polymerase (Hepatitis C virus genotype 1a, UniProt P27958); test: Primed homopolymeric RNA (poly-G) synthesis assay; format: biochemical; conditions: 10 μM
Sequence of HCV RNA-directed RNA polymerase (P27958 2421-3011): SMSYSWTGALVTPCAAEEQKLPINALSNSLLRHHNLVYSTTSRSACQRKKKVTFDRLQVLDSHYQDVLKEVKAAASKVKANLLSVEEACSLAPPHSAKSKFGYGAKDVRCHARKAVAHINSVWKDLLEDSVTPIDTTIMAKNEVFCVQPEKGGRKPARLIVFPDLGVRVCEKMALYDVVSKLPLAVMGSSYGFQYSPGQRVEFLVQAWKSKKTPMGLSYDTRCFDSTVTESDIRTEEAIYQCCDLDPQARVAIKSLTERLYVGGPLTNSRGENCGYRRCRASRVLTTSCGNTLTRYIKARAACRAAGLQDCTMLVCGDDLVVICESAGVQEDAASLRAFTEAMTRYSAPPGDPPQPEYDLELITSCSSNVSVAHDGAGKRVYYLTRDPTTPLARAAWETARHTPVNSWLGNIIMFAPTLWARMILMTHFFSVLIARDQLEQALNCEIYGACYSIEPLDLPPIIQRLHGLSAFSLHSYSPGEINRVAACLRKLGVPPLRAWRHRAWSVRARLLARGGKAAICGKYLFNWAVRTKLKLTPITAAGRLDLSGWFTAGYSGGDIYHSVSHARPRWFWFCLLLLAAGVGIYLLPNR
Description: FIGS. 9A-C. Specificity of anti-HBV RNAseH compounds. (FIG. 9A) Inhibition of HBV genotype D RNAseH by irrelevant compounds at 10 μM in the oligonucleotide-directed RNAseH assay. Compound #4 was employed as an example HBV RNAseH inhibitor. […] The ability of compounds #5, 6 and 8 to inhibit production of poly-G by the HCV RNA-directed RNA polymerase was measured in a primed homopolymeric RNA synthesis assay (Cao, et al., 2011. The compounds were employed at 10 μM. DMSO, vehicle control. (FIG. 9C) Dose-responsiveness of HBV RNAseH inhibition. The effects of compounds #6, 8, and 12 on the RNAseH activity of HRHPL (genotype D) were measured at concentrations ranging from 0.5 to 50 μM. The dose-response profile is plotted for compound #12.

**Q.** For NCc1ccc(-c2ccc(Cc3cc(=O)n(O)c4ncccc34)cc2)cc1 [Compound 12, napthyridinone], which IC50 [1] is on record?
**A.** The IC50 was 2.5 µM.

**Q.** What about the “Plus-strand DNA accumulation” value ([2]; 10 μM, data not shown) of the same compound?
**A.** Its value is 7.3 % of the DMSO treated control.

**Q.** And the “Block of viral replication in Huh7 cells” value [3]?
**A.** The value was about 93%.

**Q.** And the “Estimated CC50, MTS assay, Huh7 cells” value [4]?
**A.** Its value is “low μM range”.

**Q.** For CC(C)c1ccc(O)c(=O)c(O)c1 [Compound 46, beta-thujaplicinol], which CC50 [5] is on record?
**A.** The CC50 was over 150 µM.

**Q.** What about the IC50 [6] of the same compound?
**A.** The IC50 was 0.2 to 0.3 µM.

**Q.** And the “Activity against HIV replication in cells” value [7]?
**A.** Its value is “inactive”.

**Q.** What about the CC50 [8] of the same compound?
**A.** Its CC50 is 16.7 ± 3.7 µM.

**Q.** What about the “HBV plus-polarity DNA level” value ([2]; above 10 μM, assay background approximately 14%) of the same compound?
**A.** The value was under 14%.

**Q.** And the EC50 ([2]; read-out: 50% effective concentration (EC50), genotype A isolate in Huh7 cells)?
**A.** Its EC50 is about 5 µM.

**Q.** And the CC50 [9]?
**A.** Its CC50 is 2.3 µM.

**Q.** What about the “Suppression of HBV plus-polarity DNA accumulation” value [10] of the same compound?
**A.** The value was “suppressed viral replication to background”.

**Q.** What about the CC50 ([4]; four days) of the same compound?
**A.** The CC50 was 10.1 ± 1.7 µM.

**Q.** For Cc1c2cc(O)c(=O)cc-2oc2cc(O)c(O)cc12 [Compound 8], which “Inhibition of poly-G production by HCV RNA polymerase” value [11] is on record?
**A.** The value was “do not significantly inhibit”.

**Q.** For CCOc1ccc(-c2c3cc(O)c(=O)cc-3oc3cc(O)c(O)cc23)cc1 [Compound 30], which “Suppression of HBV plus-polarity DNA accumulation” value [10] is on record?
**A.** Its value is “inhibited accumulation of HBV plus-polarity DNA to lesser extents”.
